*1 amine or outer side, *2 acyl side, *3 side chain or, on linkers, in order; H or OH if unused. Where a SMILES comes first, the peptide text is derived from it. Side-chain parts run from the residue outwards. [ ]: non-standard residue; d: D form. The star is where a group is joined. C18 diacid = O=C(O)CCCCCCCCCCCCCCCCC(=O)*; C16 diacid = O=C(O)CCCCCCCCCCCCCCC(=O)*; γGlu = O=C(O)[C@H](CCC(=O)[*:2])N[*:1]; NMeI = CC[C@H](C)[C@H](NC)C(=O)O; Dap = NC[C@H](N)C(=O)O; AEEA = NCCOCCOCC(=O)O; Aib = CC(C)(N)C(=O)O
What was measured:
human CRF2a receptor = biological target: T1, human CRF2a receptor (Homo sapiens, UniProt Q13324); experiment: Activity at human CRF2a receptor, cAMP functional assay in TeloHEAC cells; type: cell-based; settings: TeloHEAC cells stably expressing human CRF2a receptor, relative to urocortin 2 (100 nM = 100%)
T1 construct: expressed in transfected cells; host or cells: TeloHEAC cells
T1 sequence (Q13324 1-411): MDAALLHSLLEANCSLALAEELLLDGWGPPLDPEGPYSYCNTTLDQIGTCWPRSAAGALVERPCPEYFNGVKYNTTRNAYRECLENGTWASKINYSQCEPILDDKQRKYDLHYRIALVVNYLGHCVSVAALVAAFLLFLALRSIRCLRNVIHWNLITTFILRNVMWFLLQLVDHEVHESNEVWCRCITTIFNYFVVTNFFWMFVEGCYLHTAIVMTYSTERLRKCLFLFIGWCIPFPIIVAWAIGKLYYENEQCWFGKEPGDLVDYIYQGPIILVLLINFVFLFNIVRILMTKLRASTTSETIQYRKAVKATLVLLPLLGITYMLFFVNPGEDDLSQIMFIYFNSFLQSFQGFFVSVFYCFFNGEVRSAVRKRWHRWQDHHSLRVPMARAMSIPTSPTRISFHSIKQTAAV
Procedure, shortened: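 cAMP accumulation was measured by HTRF 665/620 nm ratio after 30 min at 37° C compound exposure (16 twofold dilutions) of CRF2a-expressing TeloHEAC cells, 10000/well, in HEPES-buffered HBSS plus IBMX. Activity was normalised to urocortin 2 at 100 nM (100%), and EC50 was the concentration giving half-maximal activation.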

CFR1R receptor = biological target: T2, CFR1R receptor (Homo sapiens, UniProt P34998); experiment: Activity at anti-target CFR1R receptor, cAMP assay in CRF1R-overexpression CHO-K1 cells; type: cell-based; settings: 100% = Sauvagine at 100 nM; for EC50: cAMP
T2 construct: host or cells: CHO-K1 (clone 2)
T2 sequence (P34998 24-415): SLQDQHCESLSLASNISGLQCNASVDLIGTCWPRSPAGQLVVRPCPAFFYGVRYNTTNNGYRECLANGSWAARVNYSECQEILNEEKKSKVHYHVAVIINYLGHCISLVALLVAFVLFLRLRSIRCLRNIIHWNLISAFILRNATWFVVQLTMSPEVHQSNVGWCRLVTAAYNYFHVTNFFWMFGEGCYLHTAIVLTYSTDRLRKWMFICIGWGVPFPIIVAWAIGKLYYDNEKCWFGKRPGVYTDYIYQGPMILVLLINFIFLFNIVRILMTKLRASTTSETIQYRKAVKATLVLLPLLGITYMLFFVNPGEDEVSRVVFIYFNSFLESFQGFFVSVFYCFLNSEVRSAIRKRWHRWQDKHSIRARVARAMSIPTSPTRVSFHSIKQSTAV
Procedure, shortened: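 Uses frozen stocks of CHO-K1 clone 2 cells overexpressing human CRF1R, plated at 4000 cells/well final, with cAMP measured by the same protocol as the TeloHAEC line. Full-activation control: 100 nM Sauvagine.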

Row | SMILES | EC50 (human CRF2a receptor) [nM] | Emax (% I) (CFR1R receptor) | EC50 (CFR1R receptor) [nM]
1 | CC[C@H](C)[C@H](NC(C)=O)C(=O)N[C@H](C(=O)N[C@@H](CC(C)C)C(=O)N[C@@H](CO)C(=O)N[C@@H](CC(C)C)C(=O)N[C@@H](CC(=O)O)C(=O)N[C@@H](C(=O)N1CCC[C@H]1C(=O)N[C@H](C(=O)N[C@@H](CCCCN)C(=O)N[C@@H](CC(C)C)C(=O)N[C@@H](CCCCNC(=O)COCCOCCNC(=O)COCCOCCNC(=O)CC[C@H](NC(=O)CC[C@H](NC(=O)CCCCCCCCCCCCCCCCC(=O)O)C(=O)O)C(=O)O)C(=O)N[C@@H](CCCCN)C(=O)N[C@H](C(=O)N[C@@H](CC(C)C)C(=O)N[C@@H](CC(C)C)C(=O)N[C@@H](CCC(=O)O)C(=O)N[C@@H](CCC(N)=O)C(=O)N[C@@H](CCC(=O)O)C(=O)N[C@@H](CCCCN)C(=O)N[C@@H](CCC(N)=O)C(=O)N[C@@H](CCCCN)C(=O)N[C@@H](CCCCN)C(=O)N[C@@H](CCC(N)=O)C(=O)N[C@@H](CCCNC(=N)N)C(=O)N[C@@H](CCC(=O)O)C(=O)N[C@@H](CCC(N)=O)C(=O)N[C@@H](C)C(=O)N[C@@H](CCC(=O)O)C(=O)N[C@H](C(=O)N[C@@H](CC(N)=O)C(=O)NC(C)(C)C(=O)N[C@@H](CCC(N)=O)C(=O)N[C@H](C(=O)N[C@@H](CC(C)C)C(=O)N[C@@H](C)C(=O)N[C@@H](CCC(N)=O)C(=O)N[C@H](C(N)=O)C(C)C)[C@@H](C)CC)[C@@H](C)O)[C@@H](C)CC)[C@@H](C)CC)C(C)C)C(C)C [compound 204] (Ac-IVLSLD[dV]PIKLK([AEEA-AEEA-γGlu-γGlu-C18 diacid])KILLEQEKQKKQREQAETN[Aib]QILAQV-NH2) | 1.84 | −2 | > 250
2 | CC[C@H](C)[C@H](NC(C)=O)C(=O)N[C@H](C(=O)N[C@@H](CC(C)C)C(=O)N[C@@H](CO)C(=O)N[C@@H](CC(C)C)C(=O)N[C@@H](CC(=O)O)C(=O)N[C@@H](C(=O)N1CCC[C@H]1C(=O)N[C@H](C(=O)N[C@@H](C)C(=O)N[C@@H](CC(C)C)C(=O)N[C@@H](CCCCNC(=O)CC[C@H](NC(=O)CCCCCCCCCCCCCCC(=O)O)C(=O)O)C(=O)N[C@@H](CCCCN)C(=O)N[C@H](C(=O)N[C@@H](CC(C)C)C(=O)N[C@@H](CC(C)C)C(=O)N[C@@H](CCC(=O)O)C(=O)N[C@@H](CCC(N)=O)C(=O)N[C@@H](CCC(=O)O)C(=O)N[C@@H](CCCCN)C(=O)N[C@@H](CCC(N)=O)C(=O)N[C@@H](CCCCN)C(=O)N[C@@H](CCCCN)C(=O)N[C@@H](CCC(N)=O)C(=O)N[C@@H](CCCNC(=N)N)C(=O)N[C@@H](CCC(=O)O)C(=O)N[C@@H](CCC(N)=O)C(=O)N[C@@H](C)C(=O)N[C@@H](CCC(=O)O)C(=O)N[C@H](C(=O)N[C@@H](CC(N)=O)C(=O)NC(C)(C)C(=O)N[C@@H](CCC(N)=O)C(=O)N[C@H](C(=O)N[C@@H](CC(C)C)C(=O)N[C@@H](C)C(=O)N[C@@H](CCC(N)=O)C(=O)N[C@H](C(N)=O)C(C)C)[C@@H](C)CC)[C@@H](C)O)[C@@H](C)CC)[C@@H](C)CC)C(C)C)C(C)C [compound 163] (Ac-IVLSLD[dV]PIALK([γGlu-C16 diacid])KILLEQEKQKKQREQAETN[Aib]QILAQV-NH2) | 0.3 | 53 | –
3 | CC[C@H](C)[C@H](NC(C)=O)C(=O)N[C@H](C(=O)N[C@@H](CC(C)C)C(=O)N[C@@H](CO)C(=O)N[C@@H](CC(C)C)C(=O)N[C@@H](CC(=O)O)C(=O)N[C@@H](C(=O)N1CCC[C@H]1C(=O)N[C@H](C(=O)N[C@@H](CCCCN)C(=O)N[C@@H](CC(C)C)C(=O)N[C@@H](CCCCNC(=O)CC[C@H](NC(=O)CCCCCCCCCCCCCCCCC(=O)O)C(=O)O)C(=O)N[C@@H](CCCCN)C(=O)N[C@H](C(=O)N[C@@H](CC(C)C)C(=O)N[C@@H](CC(C)C)C(=O)N[C@@H](CCC(=O)O)C(=O)N[C@@H](CCC(N)=O)C(=O)N[C@@H](CCC(=O)O)C(=O)N[C@@H](CCCCN)C(=O)N[C@@H](CCC(N)=O)C(=O)N[C@@H](CCCCN)C(=O)N[C@@H](CCCCN)C(=O)N[C@@H](CCC(N)=O)C(=O)N[C@@H](CCCNC(=N)N)C(=O)N[C@@H](CCC(=O)O)C(=O)N[C@@H](CCC(N)=O)C(=O)N[C@@H](C)C(=O)N[C@@H](CCC(=O)O)C(=O)N[C@H](C(=O)N[C@@H](CC(N)=O)C(=O)N[C@@H](CN)C(=O)N[C@@H](CCC(N)=O)C(=O)N[C@H](C(=O)N[C@@H](CC(C)C)C(=O)N[C@@H](C)C(=O)N[C@@H](CCC(N)=O)C(=O)N[C@H](C(N)=O)C(C)C)[C@@H](C)CC)[C@@H](C)O)[C@@H](C)CC)[C@@H](C)CC)C(C)C)C(C)C [compound 128] (Ac-IVLSLD[dV]PIKLK([γGlu-C18 diacid])KILLEQEKQKKQREQAETN[Dap]QILAQV-NH2) | 0.17 | 10 | > 250
4 | CC[C@H](C)[C@H](NC)C(=O)N[C@H](C(=O)N[C@@H](CC(C)C)C(=O)N[C@@H](CO)C(=O)N[C@@H](CC(C)C)C(=O)N[C@@H](CC(=O)O)C(=O)N[C@@H](C(=O)N1CCC[C@H]1C(=O)N[C@H](C(=O)NCC(=O)N[C@@H](CC(C)C)C(=O)N[C@@H](CCCCNC(=O)CC[C@H](NC(=O)CCCCCCCCCCCCCCCCC(=O)O)C(=O)O)C(=O)N[C@@H](CCCCN)C(=O)N[C@H](C(=O)N[C@@H](CC(C)C)C(=O)N[C@@H](CC(C)C)C(=O)N[C@@H](CCC(=O)O)C(=O)N[C@@H](CCC(N)=O)C(=O)N[C@@H](CCC(=O)O)C(=O)N[C@@H](CCCCN)C(=O)N[C@@H](CCC(N)=O)C(=O)N[C@@H](CCCCN)C(=O)N[C@@H](CCCCN)C(=O)N[C@@H](CCC(N)=O)C(=O)N[C@@H](CCCNC(=N)N)C(=O)N[C@@H](CCC(=O)O)C(=O)N[C@@H](CCC(N)=O)C(=O)N[C@@H](C)C(=O)N[C@@H](CCC(=O)O)C(=O)N[C@H](C(=O)N[C@@H](CC(N)=O)C(=O)NC(C)(C)C(=O)N[C@@H](CCC(N)=O)C(=O)N[C@H](C(=O)N[C@@H](CC(C)C)C(=O)N[C@@H](C)C(=O)N[C@@H](CCC(N)=O)C(=O)N[C@H](C(N)=O)C(C)C)[C@@H](C)CC)[C@@H](C)O)[C@@H](C)CC)[C@@H](C)CC)C(C)C)C(C)C [compound 192] (H-[NMeI]VLSLD[dV]PIGLK([γGlu-C18 diacid])KILLEQEKQKKQREQAETN[Aib]QILAQV-NH2) | 0.11 | 19 | > 250
5 | CC[C@H](C)[C@H](NC)C(=O)N[C@H](C(=O)N[C@@H](CC(C)C)C(=O)N[C@@H](CO)C(=O)N[C@@H](CC(C)C)C(=O)N[C@@H](CC(=O)O)C(=O)N[C@@H](C(=O)N1CCC[C@H]1C(=O)N[C@H](C(=O)N[C@@H](CCCCN)C(=O)N[C@@H](CC(C)C)C(=O)N[C@@H](CCCCNC(=O)CC[C@H](NC(=O)CCCCCCCCCCCCCCCCC(=O)O)C(=O)O)C(=O)N[C@@H](CCC(N)=O)C(=O)N[C@H](C(=O)N[C@@H](CC(C)C)C(=O)N[C@@H](CC(C)C)C(=O)N[C@@H](CCCCN)C(=O)N[C@@H](CCC(N)=O)C(=O)N[C@@H](CCC(=O)O)C(=O)N[C@@H](CCCNC(=N)N)C(=O)N[C@@H](CCC(N)=O)C(=O)N[C@@H](CCCCN)C(=O)N[C@@H](CCCCN)C(=O)N[C@@H](CCC(N)=O)C(=O)N[C@@H](CCCNC(=N)N)C(=O)N[C@@H](CCC(=O)O)C(=O)N[C@@H](CCC(N)=O)C(=O)N[C@@H](C)C(=O)N[C@@H](CCC(=O)O)C(=O)N[C@@H](CCCCN)C(=O)N[C@@H](CC(N)=O)C(=O)N[C@@H](C)C(=O)N[C@@H](CCC(N)=O)C(=O)N[C@H](C(=O)N[C@@H](CC(C)C)C(=O)N[C@@H](CCC(=O)O)C(=O)N[C@@H](CCC(N)=O)C(=O)N[C@H](C(N)=O)C(C)C)[C@@H](C)CC)[C@@H](C)CC)[C@@H](C)CC)C(C)C)C(C)C [compound 24] (H-[NMeI]VLSLD[dV]PIKLK([γGlu-C18 diacid])QILLKQERQKKQREQAEKNAQILEQV-NH2) | 0.04 | 37 | > 250

Reference: patent US20260001928A1 (CORTERIA PHARMACEUTICALS, priority 2022, published 2026)
